Measurements reported in US20260008788A1, “AZA-FUSED RING COMPOUND, PREPARATION METHOD THEREFOR, AND USE THEREOF IN MEDICINE” (SUZHOU ARK BIOPHARMACEUTICAL CO., LTD., priority 2022, published 2026).

Target: T1, PDE4B2 (Homo sapiens, UniProt Q07343)
T1 construct: purchased BPS bioscience 60042
Experiment: Inhibitory effect on PDE4 enzyme (AMP-Glo Assay kit), PDE4B2
Type: biochemical
Settings: cAMP substrate, 60 minutes at room temperature, AMP-Glo detection
Text: PDE4 enzyme can hydrolyze cAMP to produce AMP. The synthetic PDE4 enzyme inhibitor act together with PDE4 enzyme and the substrate cAMP for a certain period of time, and then the AMP-Glo™ Assay kit was used for detection. The detection is divided into two steps: first, converting the AMP produced in the reaction into ADP, and second, converting ADP into ATP. ATP binds to the reagent and emits […]. The fluorescence value is detected using an […]. IC50 value of the PDE4 enzyme inhibitor was calculated by plotting a graph with the […] values. The specific details are as follows:
The compound plate was centrifuged at 1000 rpm for 1 minute.
% Inhibition={1−(Average RLU of the compound−Average RLU of the positive control of the whole plate)/(Average RLU of the negative control of the whole plate−Average RLU of the positive control of the whole plate)}
The IC50 is calculated by fitting the % inhibition values and the logarithm of the compound concentration to a non-linear regression (dose response-variable slope) using Graphpad 8.0.

T1 sequence (Q07343 1-564 isoform Q07343-2): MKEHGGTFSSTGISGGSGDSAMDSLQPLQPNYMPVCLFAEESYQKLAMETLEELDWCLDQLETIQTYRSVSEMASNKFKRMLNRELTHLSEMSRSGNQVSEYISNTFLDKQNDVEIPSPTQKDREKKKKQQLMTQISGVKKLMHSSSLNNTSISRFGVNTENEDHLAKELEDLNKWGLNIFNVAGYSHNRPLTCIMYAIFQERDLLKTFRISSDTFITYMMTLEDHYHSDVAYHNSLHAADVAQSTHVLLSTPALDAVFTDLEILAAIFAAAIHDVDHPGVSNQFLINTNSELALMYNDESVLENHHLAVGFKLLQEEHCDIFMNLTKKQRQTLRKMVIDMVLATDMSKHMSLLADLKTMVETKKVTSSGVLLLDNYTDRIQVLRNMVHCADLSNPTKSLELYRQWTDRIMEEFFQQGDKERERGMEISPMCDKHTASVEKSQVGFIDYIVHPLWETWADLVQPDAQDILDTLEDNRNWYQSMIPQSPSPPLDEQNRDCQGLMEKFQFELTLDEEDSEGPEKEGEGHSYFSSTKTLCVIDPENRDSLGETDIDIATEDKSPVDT

Structure (SMILES)	IC50
[O-][S@+]1CCc2nc(N3CCc4oc(C5CCCCC5)nc4C3)nc(NC3(CO)CCC3)c21 [Example 5, (R)-2-(2-cyclohexyl-6,7-dihydrooxazolo[4,5-c]pyridin-5(4H)-yl)-4-((1-(hydroxymethyl)cyclobutyl)amino)-6,7-dihydrothieno[3,2-d]pyrimidine 5-oxide]	0.93 nM
[O-][S@+]1CCc2nc(N3CCc4c(cnn4-c4ccccc4)C3)nc(NC3(CO)CCC3)c21 [Example 12, (R)-4-((1-(hydroxymethyl)cyclobutyl)amino)-2-(1-phenyl-1,4,6,7-tetrahydro-5H-pyrazolo[4,3-c]pyridin-5-yl)-6,7-dihydrothieno[3,2-d]pyrimidine-5-oxide]	0.63 nM
Cc1cc(C(F)(F)F)c(CNc2nc(N3CCc4oc(-c5ccc(F)cc5)nc4C3)nc3c2[S@+]([O-])CC3)c(=O)[nH]1 [Example 17, (R)-3-(((2-(2-(4-fluorophenyl)-6,7-dihydrooxazolo[4,5-c]pyridin-5(4H)-yl)-5-oxido-6,7-dihydrothieno[3,2-d]pyrimidin-4-yl)amino)methyl)-6-methyl-4-(trifluoromethyl)pyridin-2(1H)-one]	8.9 nM
COc1nc(C)cc(C)c1CNc1nc(N2CCc3oc(-c4ccc(F)cc4)nc3C2)nc2c1[S@+]([O-])CC2 [Example 18, (R)-2-(2-(4-fluorophenyl)-6,7-dihydrooxazolo[4,5-c]pyridin-5(4H)-yl)-4-(((2-methoxy-4,6-dimethylpyridin-3-yl)methyl)amino)-6,7-dihydrothieno[3,2-d]pyrimidine 5-oxide]	0.5 nM
[O-][S@+]1CCc2nc(N3CCc4cc(-c5ncccn5)ccc4C3)nc(NC34CC(CO)(C3)C4)c21 [Example 24, (R)-4-((3-(hydroxymethyl)bicyclo[1.1.1]pentan-1-yl)amino)-2-(6-(pyrimidin-2-yl)-3,4-dihydroisoquinolin-2(1H)-yl)-6,7-dihydrothieno[3,2-d]pyrimidine 5-oxide]	< 0.1 nM
